The experiment deals with T1, human IL-17AA (Homo sapiens, UniProt Q16552).
T1 construct: host or cells: HEK (human embryonic kidney) cells
T1 sequence (Q16552 24-155) 1: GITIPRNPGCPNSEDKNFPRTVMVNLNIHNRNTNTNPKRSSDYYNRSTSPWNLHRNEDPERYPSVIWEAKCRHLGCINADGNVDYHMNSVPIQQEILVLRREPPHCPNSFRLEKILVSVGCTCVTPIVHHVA
T1 sequence (Q16552 24-155) 2: T1 sequence (Q16552 24-155) 1
The experiment can be described thus: IL-8 release assay in human epithelial keratinocytes adult (HEKa). It counts as cell-based. Conditions: 3 ng/ml human IL-17AA + 10 ng/ml human TNFalpha, 68-72 h, IL-8 by HTRF, read-out: Rel EC50 L-8 release assay. The procedure, abridged: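 IL-8 secretion, quantified by HTRF (665/620 nm) as percent of controls, served as the readout after 68–72 h culture of HEKa cells with compound plus IL-17AA (3 ng/ml final) and TNF-alpha (10 ng/ml final). Four-parameter logistic curves gave relative IC50 and Emax.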
Background: TR-FRET usually uses a lanthanide donor and a delayed reading to cut background.

Where only a bound is given, the exact number is not on record here.

Take `CC(C)n1cc(-c2ccc(Cl)c(CC(NC(=O)c3ccnn3C)C(=O)Nc3ccc(-c4nncn4C)c(O)c3)c2)ccc1=O` (centres unmarked) [Example 69, N-[1-[[2-chloro-5-(1-isopropyl-6-oxo-3-pyridyl)phenyl]methyl]-2-[3-hydroxy-4-(4-methyl-1,2,4-triazol-3-yl)anilino]-2-oxo-ethyl]-2-methyl-pyrazole-3-carboxamide]: the EC50 (as a rule, the concentration that produces a half-maximal response) is 100 to 1000 nM.

Consider `Cc1nocc1C(=O)NC(Cc1cc(-c2ccc(=O)n(C(C)C)c2)ccc1Cl)C(=O)Nc1ccc(-c2ccnn2C)c(Cl)c1` (centres unmarked) [Example 102, N-[1-[[2-chloro-5-(1-isopropyl-6-oxo-3-pyridyl)phenyl]methyl]-2-[3-chloro-4-(2-methylpyrazol-3-yl)anilino]-2-oxo-ethyl]-3-methyl-isoxazole-4-carboxamide], for which the EC50 was 100 to 1000 nM.

With `CC(C)N(C)c1cc(-c2ccc(Cl)c(CC(NC(=O)c3ccnn3C)C(=O)Nc3ccc(-c4cncn4C)cc3)c2)ccn1` (centres unmarked) [Example 159, N-[1-[[2-chloro-5-[2-[isopropyl(methyl)amino]-4-pyridyl]phenyl]methyl]-2-[4-(3-methylimidazol-4-yl)anilino]-2-oxo-ethyl]-2-methyl-pyrazole-3-carboxamide], the EC50 is below 100 nM.

For the molecule `Cc1nocc1C(=O)N[C@@H](Cc1cc(-c2ccnc(C(=O)C(C)(C)C)c2)ccc1Cl)C(=O)Nc1ccc(-c2nncn2C)cc1` [Example 84, N-[(1S)-1-[[2-chloro-5-[2-(2,2-dimethylpropanoyl)-4-pyridyl]phenyl]methyl]-2-[4-(4-methyl-1,2,4-triazol-3-yl)anilino]-2-oxo-ethyl]-3-methyl-isoxazole-4-carboxamide], the EC50 lay in the range of 100 to 1000 nM.

Take `CC(C)n1cc(-c2cccc(C(c3ccccc3)C(NC(=O)c3ccnn3C)C(=O)Nc3ccc(-c4cncn4C)cc3)c2)ccc1=O` (single isomer, unassigned) [Example 230, N-[1-[[3-(1-isopropyl-6-oxo-3-pyridyl)phenyl]-phenyl-methyl]-2-[4-(3-methylimidazol-4-yl)anilino]-2-oxo-ethyl]-2-methyl-pyrazole-3-carboxamide]: the 50% effective concentration (EC50) was 100 to 1000 nM.

`Cc1cnn(C)c1-c1ccc(NC(=O)[C@@H](NC(=O)C2(F)CC2)[C@@H]2CCCc3ccc(-c4ccnc(N5C[C@@H]6C[C@H]5CN6)c4)cc32)cc1` [Example 392, N-[(1S)-1-[(1R)-7-[2-[(1S,4S)-2,5-diazabicyclo[2.2.1]heptan-2-yl]-4-pyridyl]tetralin-1-yl]-2-[4-(2,4-dimethylpyrazol-3-yl)anilino]-2-oxo-ethyl]-1-fluoro-cyclopropanecarboxamide]: the EC50 lay in the range of 100 to 1000 nM.

`Cc1n[nH]c(C)c1-c1ccc(NC(=O)[C@H](Cc2cc(-c3cccc(CN(C)C)c3)ccc2Cl)NC(=O)c2ccnn2C)cc1` [Example 60, N-[(1S)-1-[[2-chloro-5-[3-[(dimethylamino)methyl]phenyl]phenyl]methyl]-2-[4-(3,5-dimethyl-1H-pyrazol-4-yl)anilino]-2-oxo-ethyl]-2-methyl-pyrazole-3-carboxamide]: the EC50 was below 100 nM.

In the case of `CCc1cc(-c2ccc(Cl)c(CC(NC(=O)c3ccnn3C)C(=O)Nc3ccc(-c4nncn4C)cc3)c2)ccc1C#N` (centres unmarked) [Example 198, N-[1-[[2-chloro-5-(4-cyano-3-ethyl-phenyl)phenyl]methyl]-2-[4-(4-methyl-1,2,4-triazol-3-yl)anilino]-2-oxo-ethyl]-2-methyl-pyrazole-3-carboxamide], the EC50 is above 1000 nM.

`Cn1cncc1-c1ccc(NC(=O)[C@H](Cc2cc(-c3cccc([C@@H]4COCCN4)c3)ccc2Cl)NC(=O)c2ccnn2C)cc1` [Example 216, N-[(1S)-1-[[2-chloro-5-[3-[(3R)-morpholin-3-yl]phenyl]phenyl]methyl]-2-[4-(3-methylimidazol-4-yl)anilino]-2-oxo-ethyl]-2-methyl-pyrazole-3-carboxamide]: the half-maximal effective concentration (EC50) lay in the range of 100 to 1000 nM.

With `Cn1cncc1-c1ccc(NC(=O)C(Cc2cc(-c3ccnc(N4CC[C@H](O)C4)c3)ccc2Cl)NC(=O)c2ccnn2C)cc1` (stereo partly drawn) [Example 191, N-[1-[[2-chloro-5-[2-[(3S)-3-hydroxypyrrolidin-1-yl]-4-pyridyl]phenyl]methyl]-2-[4-(3-methylimidazol-4-yl)anilino]-2-oxo-ethyl]-2-methyl-pyrazole-3-carboxamide], the EC50 was 100 to 1000 nM.

In the case of `Cc1n[nH]c(C)c1-c1ccc(NC(=O)[C@@H](NC(=O)c2ccnn2C)[C@@H]2CCc3ccc(-c4ccc(CN5CCCC5)cc4)cc32)cc1` [Example 19, N-[(1S)-2-[4-(3,5-dimethyl-1H-pyrazol-4-yl)anilino]-2-oxo-1-[(1R)-6-[4-(pyrrolidin-1-ylmethyl)phenyl]indan-1-yl]ethyl]-2-methyl-pyrazole-3-carboxamide], the EC50 was in the range of 100 to 1000 nM.

As to `CC(C)c1cc(-c2ccc(Cl)c(CC(NC(=O)c3ccnn3C)C(=O)Nc3ccc(-c4nncn4C)cc3)c2)ccc1C#N` (centres unmarked) [Example 202, N-[1-[[2-chloro-5-(4-cyano-3-isopropyl-phenyl)phenyl]methyl]-2-[4-(4-methyl-1,2,4-triazol-3-yl)anilino]-2-oxo-ethyl]-2-methyl-pyrazole-3-carboxamide], the EC50 is 100 to 1000 nM.

Regarding `CC(C)n1cc(-c2ccc(Cl)c(C[C@H](NC(=O)OC3CC3)C(=O)Nc3ccc(-c4nncn4C)cc3)c2)ccc1=O` [Example 131, cyclopropyl N-[(1S)-1-[[2-chloro-5-(1-isopropyl-6-oxo-3-pyridyl)phenyl]methyl]-2-[4-(4-methyl-1,2,4-triazol-3-yl)anilino]-2-oxo-ethyl]carbamate], the EC50 lay within 100 to 1000 nM.

For the molecule `CC(C)n1cc(-c2ccc(Cl)c(CC(NC(=O)OCC3(C)CC3)C(=O)Nc3ccc(-c4nncn4C)cc3)c2)ccc1=O` (centres unmarked) [Example 106, (1-methylcyclopropyl)methyl N-[1-[[2-chloro-5-(1-isopropyl-6-oxo-3-pyridyl)phenyl]methyl]-2-[4-(4-methyl-1,2,4-triazol-3-yl)anilino]-2-oxo-ethyl]carbamate], the EC50 is above 1000 nM.

On to `Cc1n[nH]c(C)c1-c1ccc(NC(=O)[C@@H](NC(=O)c2ccnn2C)[C@@H]2CCc3ccc(-c4ccc(CN5CCC5)cc4)cc32)cc1` [Example 21, N-[(1S)-1-[(1R)-6-[4-(azetidin-1-ylmethyl)phenyl]indan-1-yl]-2-[4-(3,5-dimethyl-1H-pyrazole-4-yl)anilino]-2-oxo-ethyl]-2-methyl-pyrazole-3-carboxamide], for which the EC50 is below 100 nM.

As to `Cc1nocc1C(=O)NC(Cc1cc(-c2ccc(=O)n(C(C)C)c2)ccc1Cl)C(=O)Nc1ccc(-c2cncn2C)c(Cl)c1` (centres unmarked) [Example 103, N-[1-[[2-chloro-5-(1-isopropyl-6-oxo-3-pyridyl)phenyl]methyl]-2-[3-chloro-4-(3-methylimidazol-4-yl)anilino]-2-oxo-ethyl]-3-methyl-isoxazole-4-carboxamide], the EC50 was below 100 nM.

`CC(C)n1cc(-c2ccc(Cl)c(C[C@H](NC(=O)OC(C)(C)C)C(=O)Nc3ccc(-c4nncn4C)cc3)c2)ccc1=O` [Example 86, tert-butyl N-[(1S)-1-[[2-chloro-5-(1-isopropyl-6-oxo-3-pyridyl)phenyl]methyl]-2-[4-(4-methyl-1,2,4-triazol-3-yl)anilino]-2-oxo-ethyl]carbamate]: the EC50 was above 1000 nM.

With `Cn1cncc1-c1ccc(NC(=O)[C@H](Cc2cc(-c3ccnc(C(O)C4CC4)c3)ccc2Cl)NC(=O)c2ccnn2C)cc1` (stereo partly drawn) [Example 140, N-[(1S)-1-[[2-chloro-5-[2-[cyclopropyl(hydroxy)methyl]-4-pyridyl]phenyl]methyl]-2-[4-(3-methylimidazol-4-yl)anilino]-2-oxo-ethyl]-2-methyl-pyrazole-3-carboxamide], the EC50 is 100 to 1000 nM.

Consider `Cn1cnnc1-c1ccc(NC(=O)C(Cc2cc(-c3cccc(C4CC4)c3)ccc2Cl)NC(=O)c2ccnn2C)cc1` (centres unmarked) [Example 170, N-[1-[[2-chloro-5-(3-cyclopropylphenyl)phenyl]methyl]-2-[4-(4-methyl-1,2,4-triazol-3-yl)anilino]-2-oxo-ethyl]-2-methyl-pyrazole-3-carboxamide], for which the EC50 fell in the range of 100 to 1000 nM.

Turning to `Cc1n[nH]cc1-c1ccc(NC(=O)C(NC(=O)c2ccnn2C)C(c2ccccc2)c2cccc(-c3ccc(=O)n(C(C)C)c3)c2)cc1` (single isomer, unassigned; diastereomer 1) [Example 235, N-[1-[[3-(1-isopropyl-6-oxo-3-pyridyl)phenyl]-phenyl-methyl]-2-[4-(3-methyl-1H-pyrazol-4-yl)anilino]-2-oxo-ethyl]-2-methyl-pyrazole-3-carboxamide (Diastereomer 1)], the EC50 is below 100 nM.

Consider `Cc1[nH]ncc1-c1ccc(NC(=O)C(Cc2cc(-c3ccc(=O)n(C(C)C)c3)ccc2Cl)NC(=O)OC(C)(C)C)cc1` (centres unmarked) [Example 90, tert-butyl N-[1-[[2-chloro-5-(1-isopropyl-6-oxo-3-pyridyl)phenyl]methyl]-2-[4-(5-methyl-1H-pyrazol-4-yl)anilino]-2-oxo-ethyl]carbamate], for which the EC50 lay within 100 to 1000 nM.

For the molecule `Cc1ncn(C)c1-c1ccc(NC(=O)[C@@H](NC(=O)C2(F)CC2)C(C)c2cc(-c3ccc(=O)n(C(C)C)c3)ccc2Cl)cc1` (stereo partly drawn) [Example 52, N-[(1S)-2-[2-chloro-5-(1-isopropyl-6-oxo-3-pyridyl)phenyl]-1-[[4-(3,5-dimethylimidazol-4-yl)phenyl]carbamoyl]propyl]-1-fluoro-cyclopropanecarboxamide], the EC50 is above 1000 nM.

Turning to `CC(C)n1cc(-c2ccc3c(c2)[C@H]([C@H](NC(=O)OC2CC2)C(=O)Nc2ccc(-c4cncn4C)c(O)c2)CCC3)ccc1=O` [Example 31, cyclopropyl N-[(1S)-2-[3-hydroxy-4-(3-methylimidazol-4-yl)anilino]-1-[(1R)-7-(1-isopropyl-6-oxo-3-pyridyl)tetralin-1-yl]-2-oxo-ethyl]carbamate], the 50% effective concentration (EC50) was below 100 nM.

These data come from patent US20220162191A1, “SMALL MOLECULE MODULATORS OF IL-17” (LEO PHARMA A/S, priority 2019, published 2022).
